Active and inactive are the calls of the source. No rule for the calls is given here.

The target in this experiment is Ubiquitin-conjugating enzyme E2 N (Homo sapiens) (UniProt P61088). Description: NMR detection of UBE2N ligand binding – biophysical, purified protein (AID 1552). The following applies: NMR binding to purified UBE2N.
Ubiquitin-conjugating enzyme E2 N (Homo sapiens), sequence (P61088 whole entry, looked up): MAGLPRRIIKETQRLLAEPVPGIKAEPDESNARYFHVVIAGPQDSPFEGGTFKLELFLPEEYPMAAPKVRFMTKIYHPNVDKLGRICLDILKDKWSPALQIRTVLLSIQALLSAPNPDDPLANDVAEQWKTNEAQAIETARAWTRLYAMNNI
As usually defined, the Kd is a measure of binding affinity in units of concentration. Regarding `COc1ccc2cc1Oc1ccc(cc1)C[C@H]1c3c(cc4c(c3Oc3cc5c(cc3OC)CCN(C)[C@@H]5C2)OCO4)CCN1C`, the Kd is > 4 mM (inactive).
For `CN1C(=O)/C(=C\c2ccc[nH]2)SC1=S`, the Kd is > 4 mM (inactive).
Under `N/C(=N/O)C1COc2ccccc2O1` (stereo not given) stands > 4 mM (inactive); under `NC(=O)CN=Cc1c(O)[nH]c2ccccc12`, > 4 mM (inactive); under `CC1(C)CC[C@]2(C(=O)O)CC[C@]3(C)C(=CCC4[C@@]5(C)CC[C@H](O)[C@@](C)(CO)C5CC[C@]43C)C2C1` (stereo not given in full), > 4 mM (inactive).
For the molecule `COc1ccc(-c2nc(N)n(C(C)=O)n2)cc1`, the Kd was > 4 mM (inactive).
Consider `CC(CC(O)C1OC1(C)C)[C@@H]1CCC2(C)C3=CCC4C(C)(C)C(=O)CCC4(C)C3CC[C@@]12C` (stereo not given in full), for which the Kd was > 4 mM (inactive).
In the case of `O=C(O)c1ccc(NCc2cccnc2)cc1`, the Kd is > 4 mM (inactive).
Turning to `CCOC12NC(=O)CC(=O)N1C(c1ccccc1)=CS2` (stereo not given), the Kd is > 4 mM (inactive).
In the case of `Cn1c(SCC(N)=O)nc2c1c(=O)[nH]c(=O)n2C`, the Kd was > 4 mM (inactive).
`Nc1ncnc2c1ncn2CCN1CCOCC1`: the Kd is > 4 mM (inactive).
As to `C=C1CSc2nc(=O)c3c(C)c(C)sc3n21`, the Kd is > 4 mM (inactive).
`COCC(=O)N1CCCc2ccccc21`: the Kd was > 4 mM (inactive).
Regarding `COc1ccc(CN2CCOCC2)c(C)c1C`, the Kd is > 4 mM (inactive).
In the case of `CCOC(=O)c1csc(C)n1`, the Kd was > 4 mM (inactive).
Under `O=C(CC1NC(=O)NC1=O)Nc1ccccc1` (stereo not given) stands > 4 mM (inactive); under `CC(=O)Nc1ccc2c(c1)C(=O)N(C1CCCCC1)C2=O`, > 4 mM (inactive).
Consider `Nc1ccc(Cl)nn1`, for which the Kd was > 4 mM (inactive).
On to `O=C1Nc2ccccc2C1(O)Cc1ccncc1` (stereo not given), for which the Kd was > 4 mM (inactive).
As for `CC(=O)NCc1nc2ccccc2[nH]1`, the Kd is > 4 mM (inactive).
Take `O=C(NCCO)c1ccccc1I`: the Kd is > 4 mM (inactive).
For `CC(=O)Nc1c(C)n(C)n(-c2ccccc2)c1=O`, the Kd was > 4 mM (inactive).
Under `NC(=O)C1CCN(C(=O)c2ccccc2F)CC1` stands > 4 mM (inactive).
For the molecule `C/C1=C\CCC(=O)C2CC(C)(C)C2CC1` (stereo not given), the Kd was > 4 mM (inactive).
In the case of `O=C1COc2cc(O)ccc21`, the Kd was > 4 mM (inactive).
In the case of `O=C1c2cccc3cc(S(=O)(=O)O)cc(c23)C(=O)N1O`, the Kd was > 4 mM (inactive).
Regarding `CCN(CC)S(=O)(=O)c1cccc2nsnc12`, the Kd is > 4 mM (inactive).
Consider `C=C[C@H]1CN2CC[C@H]1C[C@@H]2[C@@H](O)c1ccnc2ccc(OC)cc12`, for which the Kd is > 4 mM (inactive).
In the case of `OCc1cc(F)cc2c1OCOC2`, the Kd is > 4 mM (inactive).
As to `COC(=O)c1ccc2ncccc2c1`, the Kd is > 4 mM (inactive).
As for `CN1C2CC(OC(=O)[C@H](CO)c3ccccc3)C[C@H]1[C@H]1OC21` (stereo not given in full), the Kd is > 4 mM (inactive).
`S=C(Nc1ccccc1)Nc1nncs1`: the Kd was > 4 mM (inactive).
For `C=C(C)[C@H]1Cc2c(ccc3c2O[C@@H]2COc4cc(OC)c(OC)cc4[C@@H]2C3=O)O1`, the Kd was > 4 mM (inactive).
As to `CC(=O)Nc1nnc(-c2ccccn2)o1`, the Kd was > 4 mM (inactive).
In the case of `CCn1nnnc1Oc1ccc(Cl)cc1`, the Kd is > 4 mM (inactive).
Consider `O=C1CS/C(=N/N=C/c2cccs2)N1`, for which the Kd is > 4 mM (inactive).
Under `Nc1ccc2c(c1)CCCC2=O` stands > 4 mM (inactive).
In the case of `Cn1c([O-])c([N+](C)(C)C)c(=O)n(C)c1=O`, the Kd was > 4 mM (inactive).
Next, `COc1c(F)c(F)c(-c2csc(N)n2)c(F)c1F`: > 4 mM (inactive); `Cc1nn(-c2ccccc2)nc1C(=O)O`: > 4 mM (inactive).
As to `CC(=O)c1cccc(NC(=O)Nc2c(C)nn(C)c2C)c1`, the Kd was > 4 mM (inactive).
Consider `O=[n+]1c2c(n([O-])c3ccccc31)CCCC2`, for which the Kd was > 4 mM (inactive).
Next, `CCCCCC(=O)Cc1cc(O)cc(O)c1C(=O)Oc1cc(CC(=O)CCCCC)c(C(=O)O)c(OC)c1`: > 4 mM (inactive); `O=C(Nc1cccc(C(F)(F)F)c1)c1cccnc1`: > 4 mM (inactive).
As to `Cc1cc(=O)n2[nH]cnc2n1`, the Kd is > 4 mM (inactive).
Next, `COc1ccc2ccc(=O)oc2c1CC=C(C)C`: > 4 mM (inactive); `CCC(C)C(=O)c1c(O)c(C)c2oc3c(C)c(O)c(C(=O)C(C)CC)c(O)c3c2c1O` (stereo not given): > 4 mM (inactive).
Next, `Nc1ccccc1C(=O)N1CCOCC1`: > 4 mM (inactive); `Nc1nc2ncc(CNc3ccc(C(=O)N[C@@H](CCC(=O)O)C(=O)O)cc3)nc2c(=O)[nH]1`: > 4 mM (inactive); `COc1ccc(-c2cn[nH]c2N)c(OC)c1`: > 4 mM (inactive).
With `Cc1cc2c(N)cccc2nn1`, the Kd is > 4 mM (inactive).
Under `COc1cccc(S(=O)(=O)Nc2cccnc2)c1` stands > 4 mM (inactive); under `O=c1c[n+]([O-])c2ccccc2n1OCc1ccccn1`, > 4 mM (inactive); under `O=C(O)C1CC(=O)N(CCc2ccc(Cl)cc2)C1` (stereo not given), > 4 mM (inactive).
Take `Nn1cnn2c(SCc3ccccc3)nnc12`: the Kd is > 4 mM (inactive).
Next, `COCCn1cnc2cc(C)c(C)cc21`: > 4 mM (inactive); `O=C1CSC(=S)N1N1C(=O)C2C3C=CC(C3)C2C1=O` (stereo not given): > 4 mM (inactive).
Consider `c1ccc(Cc2nnc3sc(-c4ccncc4)nn23)cc1`, for which the Kd is > 4 mM (inactive).
Under `CNC(=S)N1CCN(C(=O)c2ccco2)CC1` stands > 4 mM (inactive); under `CC(=O)Nc1cccc(NC(=O)c2ccco2)c1`, > 4 mM (inactive).
With `COC(=O)/C(=C1\OC(=O)C(c2ccccc2)C1=O)c1ccccc1` (stereo not given), the Kd is > 4 mM (inactive).
`CCOC(=O)C1CCN(c2ncnc3nc[nH]c23)CC1`: the Kd was > 4 mM (inactive).
On to `Cc1nn2c(-c3ccco3)nnc2c2ccccc12`, for which the Kd was > 4 mM (inactive).
Next, `NC(=O)c1ccc(NC(=O)c2ccco2)cc1`: > 4 mM (inactive); `Nc1nc2ccccc2n1CCN1CCCC1`: > 4 mM (inactive); `Cc1oc(-c2ccccc2)nc1CCO`: > 4 mM (inactive).
Regarding `O=C(O)c1csc(-c2ccccc2)n1`, the Kd is > 4 mM (inactive).
Turning to `O=C(Nc1cccc(Cl)c1)c1ccncc1`, the Kd is > 4 mM (inactive).
Next, `CCOc1nc(C)ccc1-c1noc(-c2ccncc2)n1`: > 4 mM (inactive); `COCCn1c(C)cc(O)cc1=O`: > 4 mM (inactive).
On to `O=C(O)c1cnc2n(c1=O)CCS2`, for which the Kd is > 4 mM (inactive).
For `CN1CCN(c2ccc(CN)cc2)CC1`, the Kd is > 4 mM (inactive).
Next, `O=C1CCC(=O)N1CN1CCOCC1`: > 4 mM (inactive).
Under `Cc1ccc(CCC(N)=O)o1` stands > 4 mM (inactive); under `COc1cccc2onc(N)c12`, > 4 mM (inactive); under `c1ccc(-c2nsc(N3CCNCC3)n2)cc1`, > 4 mM (inactive).
As to `S=c1nc[nH]c2c1cnn2-c1ccccc1`, the Kd is > 4 mM (inactive).
As to `COC(=O)C[C@H]1C2(C)CC34OC5(C)O[C@@]6([C@H](OC(C)=O)C(OC(C)=O)[C@]7(C)C(/C(=C(/O)C(C)C)C(=O)O[C@H]7c7ccoc7)[C@@]6(O5)[C@H](OC(C)=O)[C@@]3(O)C2OC(=O)C(C)C)[C@]14C` (stereo not given in full), the Kd is > 4 mM (inactive).
With `CN1CCN(c2ncnc3nc[nH]c23)CC1`, the Kd was > 4 mM (inactive).
With `COC(=O)CC1=Nc2ccccc2NC(=O)C1`, the Kd was > 4 mM (inactive).
Regarding `O=C1CC(=O)N(c2ccccc2)c2ccccc21`, the Kd was > 4 mM (inactive).
As for `CC(=O)Nc1nnc(-c2ccccc2S(C)(=O)=O)o1`, the Kd was > 4 mM (inactive).
`Cn1cnc2c(Cl)ncnc21`: the Kd is > 4 mM (inactive).
Next, `NC(=O)c1ccc(N=Cc2ccc[nH]2)cc1`: > 4 mM (inactive).
On to `COC(=O)c1cccnc1Oc1ccccc1`, for which the Kd was > 4 mM (inactive).
As for `NC(C(=O)O)C(O)c1ccccc1` (stereo not given), the Kd was > 4 mM (inactive).
`CC(=O)Oc1ccc2c(c1C(C)C)CCC1C(C)(C)CCC[C@]21C` (stereo not given in full): the Kd was > 4 mM (inactive).
Take `COC(=O)c1c(OC)cc2c(c1C)Oc1c(Cl)c(OC(C)=O)c(Cl)c(C)c1C(=O)O2`: the Kd is > 4 mM (inactive).
As to `CCn1c(=O)cc(N2CCC3(CC2)OCCO3)[nH]c1=O`, the Kd was > 4 mM (inactive).
`CNC(=O)c1ccc([N+](=O)[O-])cc1Cl`: the Kd is > 4 mM (inactive).
Regarding `O=C1NC(=S)N/C1=C/c1ccc(O)c(Cl)c1`, the Kd was > 4 mM (inactive).
For `Nc1ccccc1-n1cccn1`, the Kd was > 4 mM (inactive).
On to `Cc1cc(C(=O)Nc2ccon2)cs1`, for which the Kd was > 4 mM (inactive).
As for `Cc1ccc2cc(N)ccc2n1`, the Kd is > 4 mM (inactive).
For `C=C1C[C@]23C[C@@]1(O)CC[C@H]2[C@@]12C=C[C@H](O)C(C)(C(=O)O1)[C@H]2[C@@H]3C(=O)O`, the Kd is > 4 mM (inactive).
Regarding `CC(=O)Nc1ccc(N2CCOCC2)cc1`, the Kd is > 4 mM (inactive).
For `CC(=O)Nc1ccc(Cl)c(C(N)=O)c1`, the Kd was > 4 mM (inactive).
As for `COc1c2ccoc2nc2c(OC)c(OCC(O)C(C)(C)O)ccc12` (stereo not given), the Kd was > 4 mM (inactive).
On to `O=C1CNC(=O)/C1=C/c1ccc(O)cc1`, for which the Kd is > 4 mM (inactive).
For `COCc1nc(-c2cc(Br)ccc2OC)no1`, the Kd was > 4 mM (inactive).

Source of the values: PubChem BioAssay AID1552 (Sanford-Burnham Center for Chemical Genomics, 2009).
